The text below walks through data of ChEMBL document CHEMBL1150981, “Synthesis of new maleimide derivatives of daunorubicin and biological activity of acid labile transferrin conjugates” (Bioorg Med Chem Lett, 1997).

A short description of series [1]: Tested for the half life period at pH 5.0. Type of series: ADME.
The test system of series [2] is LXFL 529/11. Briefly: Tested for its inhibitory activity against xenograft (LXFL 529/11, lung, large cell) using a clonogenic assay. Type of series: functional, Homo sapiens.
Series [3] deals with MEXF989. Briefly: Tested for its inhibitory activity against human melanoma cells (MEFX 989) using a clonogenic assay at 0.01-1.0 uM. In kind it is functional. As to conditions: MEXF 989.
For series [4], the system named is LXFL 529/11. Kind of series: Tested for its inhibitory activity against xenograft (LXFL 529/11, lung, large cell) using a clonogenic assay at 0.01-1.0 uM; No activity. In kind it is functional, cell-based. Particulars: Homo sapiens.
For series [5], the system named is MEXF989. Briefly: Tested for its inhibitory activity against human melanoma cells ([…]) using a clonogenic assay at 0.01-1.0 uM; […]. Type of series: functional, cell-based.

The structures appear in SMILES notation. The source made the active and inactive calls. No cut-off for these calls is given here.

One may read the half-life as the time in which the quantity being followed falls by half. A higher half-life goes with slow decline. The IC90 is the point of the concentration-response curve where the effect stands at 90%. Higher therefore signals a need for much substance. For orientation: IC70 means the concentration needed for an effect of 70%. `COc1cccc2c1C(=O)c1c(O)c3c(c(O)c1C2=O)C[C@@](O)(/C(C)=N/NC(=O)c1cccc(N2C(=O)C=CC2=O)c1)C[C@@H]3OC1CC(N)C(O)C(C)O1` (stereo not given in full) gave a half-life in series [1] of 20 h. For the same compound, the concentration for an effect of 90% (IC90) in the series with LXFL 529/11 [2] was less than 10 nM. Moreover, in the series on MEXF989 [3], the IC70 amounted to 390 nM.

For `COc1cccc2c1C(=O)c1c(O)c3c(c(O)c1C2=O)C[C@@](O)(/C(C)=N/NC(=O)c1ccc(CN2C(=O)C=CC2=O)cc1)C[C@@H]3OC1CC(N)C(O)C(C)O1` (stereo not given in full), the half-life in series [1] was 30 h. The same compound gave an IC90 with LXFL 529/11 [2] of less than 10 nM. This compound also gave an IC70 in the series on MEXF989 [3] of 22 nM.

As for `COc1cccc2c1C(=O)c1c(O)c3c(c(O)c1C2=O)C[C@@](O)(C(C)=O)C[C@@H]3O[C@H]1C[C@H](N)[C@H](O)[C@H](C)O1` [DAUNORUBICIN], the IC90 with LXFL 529/11 [2] worked out at 30 nM. The IC70 with MEXF989 [3] worked out at 260 nM.

On to `COc1cccc2c1C(=O)c1c(O)c3c(c(O)c1C2=O)C[C@@](O)(C(C)=O)C[C@@H]3OC1CC(NC(=O)c2cccc(N3C(=O)C=CC3=O)c2)C(O)C(C)O1` (stereo not given in full), for which the outcome in the series with LXFL 529/11 [4] and with MEXF989 [5] was inactive.
